# Publication PMC7321065, “Discovery of New Schiff Bases Tethered Pyrazole Moiety: Design, Synthesis, Biological Evaluation, and Molecular Docking Study as Dual Targeting DHFR/DNA Gyrase Inhibitors with Immunomodulatory Activity” (Molecules, 2020)
# Read-outs that look alike come from different tables or passages of the source.
# Key:
# [1] = test system: S. aureus ATCC 43300 (MRSA); assay: Inhibition zone against MDRB, agar plate diffusion; type: cell-based
# S. aureus ATCC 33591 [2] = assay: Inhibition zone against MDRB, agar plate diffusion; type: cell-based
# Candida albicans [3] = assay: Inhibition zone, agar plate diffusion; type: cell-based; conditions: read-out: Inhibition zone (IZ)
# Outline: (§1)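 Compounds in DMSO, with DMSO as negative control, were tested at 0.5 mg/mL in agar wells cut 10 mm wide.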
# Fusarium oxysporum [4] = assay: Inhibition zone, agar plate diffusion; type: cell-based; conditions: read-out: Inhibition zone (IZ)
# Outline: as §1
# Salmonella typhi [5] = assay: Inhibition zone, agar plate diffusion; type: cell-based; conditions: Salmonella enterica, St, mm ± standard deviation, sample at 0.5 mg/mL, read-out: Inhibition zone (IZ)
# Outline: as §1
# Staphylococcus aureus [6] = assay: Inhibition zone, agar plate diffusion; type: cell-based; conditions: read-out: Inhibition zone (IZ)
# Outline: as §1
# [7] = test system: hepatocellular carcinoma cell line (HepG2); assay: Antiproliferative activity, MTT assay; type: cell-based, human; conditions: Homo sapiens, HepG2, 48 h, read-out: IC50 HepG-2
# Protocol: (§2) 3-[4, 5-Dimethyl-2-thiazolyl)-2, 5-diphenyl-2 H-tetrazolium bromide (MTT) protocol is based on the cleavage of the tetrazolium salt by mitochondrial dehydrogenases in viable cells. Cells were dispensed in a 96 well sterile microplate (5 x 10^4 cells/well), and incubated at 37 °C with series of different concentrations, in DMSO, of each tested compound or Doxorubicin ® (positive control) for 48 h in a serum free medium prior to the MTT assay. After incubation, media were carefully removed, 40 µL of MTT (2.5 mg/mL) were added to each well and then incubated for an additional 4 h. The purple formazan dye crystals were solubilized by the addition of 200 µL of DMSO. The absorbance was measured at 590 nm using a SpectraMax® Paradigm® Multi-Mode microplate reader. The relative cell viability was expressed as the mean percentage of viable cells compared to the untreated control cells.
# (§3) All experiments were conducted in triplicate and repeated in three different days. All the values were represented as mean ± SD. IC 50s were determined by probit analysis using SPSS software program (SPSS
# [8] = test system: mammary gland breast cancer cell line (MCF-7); assay: Antiproliferative activity, MTT assay; type: cell-based, human; conditions: Homo sapiens, MCF7, 48 h, read-out: IC50 MCF-7
# Protocol: as §2, §3
# E. coli ATCC BAA-196 [9] = assay: Inhibition zone against MDRB, agar plate diffusion; type: cell-based
# [10] = test system: P. aeruginosa ATCC BAA-2111; assay: MIC/MBC against MDRB, paper disk diffusion; type: cell-based; conditions: Pseudomonas aeruginosa, ATCCBAA2111
# Excerpt: (§4) The inhibition zone (IZ, mm±standard deviation) of pyrazole Schiff bases ( 6b, 7b, 7c, 8a, 8d and 9b) was
# (§5) measurement according to the agar plate diffusion method against a panel of multidrug-resistant bacteria
# (MDRB). […]
# E. coli ATCC BAA-196 [11] = assay: MIC/MBC against MDRB, paper disk diffusion; type: cell-based; conditions: Escherichia coli, ATCCBAA196
# Excerpt: as §4, §5
# (MDRB). […]
# S. aureus ATCC 33591 [12] = assay: MIC/MBC against MDRB, paper disk diffusion; type: cell-based; conditions: Staphylococcus aureus, ATCC33591
# Excerpt: as §4, §5
# (MDRB). […]
# [13] = test system: S. aureus ATCC 43300 (MRSA); assay: MIC/MBC against MDRB, paper disk diffusion; type: cell-based; conditions: Staphylococcus aureus
# Excerpt: as §4, §5
# (MDRB). […]
# Escherichia coli [14] = assay: Inhibition zone, agar plate diffusion; type: cell-based; conditions: read-out: Inhibition zone (IZ)
# Outline: as §1
# Bacillus subtilis [15] = assay: Inhibition zone, agar plate diffusion; type: cell-based; conditions: read-out: Inhibition zone (IZ)
# Outline: as §1
# Enterococcus faecalis [16] = assay: Inhibition zone, agar plate diffusion; type: cell-based; conditions: read-out: Inhibition zone (IZ)
# Outline: as §1
# Pseudomonas aeruginosa [17] = assay: Inhibition zone, agar plate diffusion; type: cell-based; conditions: read-out: Inhibition zone (IZ)
# Outline: as §1
# [18] = test system: P. aeruginosa ATCC BAA-2111; assay: Inhibition zone against MDRB, agar plate diffusion; type: cell-based
# Vero cells (ATCC CCL-81) = assay: Cytotoxicity on normal cells, MTT assay; type: cell-based, African green monkey; conditions: healthy non-cancer cells
# Protocol: as §2, §3
# Candida albicans [19] = assay: MIC/MFC, paper disk diffusion; type: cell-based; conditions: Candida albicans
# Protocol: (§6) Antimicrobial activities of the newly formed Schiff bases (6a–d, 7a–d, 8a–d, and 9a–d) and reference drugs were evaluated against three Gram-positive, three Gram-negative, and two fungi strain at Al-Azhar University, Cairo, Egypt. The inhibition zones (IZ, in mm ± standard deviation) and the minimal inhibitory concentration (MIC) (μg/mL) were determined by the conventional paper disk diffusion method.
# (§7) In Vitro Antimicrobial Activities […]
# (§8) DMSO was used for dissolving […]
# (§9) the tested microorganisms.
# (§10) The minimum inhibitory concentration (MIC), the minimum bactericidal concentration (MBC, µg/ml) and […]
# (§11) and 9b) were determined by the conventional technique termed paper disk diffusion, by applying paper […]
# (§12) Bacteria were grown on nutrient agar medium, while fungi and yeast were grown on Sabouraud agar medium. The purified streptomycin was dissolved in […]
# (§13) inoculated with test organism. Growth inhibition was examined after 24 hr. from incubation at 37 °C for bacteria and after 72 hr. incubation at 27 °C for fungi and yeast. Each test was repeated three times. MIC was expressed as the lowest concentration inhibiting test organism’s growth. […]
# Fusarium oxysporum [20] = assay: MIC/MFC, paper disk diffusion; type: cell-based; conditions: Fusarium oxysporum
# Protocol: as §6, §7, §8, §9, §10, §11, §12, §13
# Escherichia coli [21] = assay: MIC/MBC, paper disk diffusion; type: cell-based; conditions: Escherichia coli
# Protocol: as §6, §7, §8, §9, §10, §11, §12, §13
# Salmonella typhi [22] = assay: MIC/MBC, paper disk diffusion; type: cell-based; conditions: Salmonella enterica, S. typhi
# Protocol: as §6, §7, §8, §9, §10, §11, §12, §13
# Staphylococcus aureus [23] = assay: MIC/MBC, paper disk diffusion; type: cell-based; conditions: Staphylococcus aureus
# Protocol: as §6, §7, §8, §9, §10, §11, §12, §13
# Bacillus subtilis [24] = assay: MIC/MBC, paper disk diffusion; type: cell-based
# Protocol: as §6, §7, §8, §9, §10, §11, §12, §13
# Enterococcus faecalis [25] = assay: MIC/MBC, paper disk diffusion; type: cell-based
# Protocol: as §6, §7, §8, §9, §10, §11, §12, §13
# Pseudomonas aeruginosa [26] = assay: MIC/MBC, paper disk diffusion; type: cell-based; conditions: for MBC: P. aeruginosa
# Protocol: as §6, §7, §8, §9, §10, §11, §12, §13
# [27] = Ca, mm ± standard deviation, sample at 0.5 mg/mL
# [28] = Fo, mm ± standard deviation, sample at 0.5 mg/mL
# [29] = Sa, mm ± standard deviation, sample at 0.5 mg/mL
# [30] = Ec, mm ± standard deviation, sample at 0.5 mg/mL
# [31] = Bs, mm ± standard deviation, sample at 0.5 mg/mL
# [32] = Ef, mm ± standard deviation, sample at 0.5 mg/mL
# [33] = Pa, mm ± standard deviation, sample at 0.5 mg/mL
compound,measurement,setting,value
"COc1ccc(Nc2n[nH]c(N=Cc3c(C)nn(-c4ccccc4)c3Cl)c2C(=O)Nc2ccc(C)cc2)cc1 [7c, 5-((5-Chloro-3-methyl-1-phenyl-1H-pyrazol-4-yl)methyleneamino)-3-(p-methoxyphenylamino)-N-p-tolyl-1H-pyrazole-4-carboxamide]",Mean Diameter of Inhibition Zone against MDRB,[1],17 ± 0.37 mm
same,Mean Diameter of Inhibition Zone against MDRB,S. aureus ATCC 33591 [2],21 ± 0.19 mm
same,zone of inhibition at 500 µg/mL,Candida albicans [3],27 ± 0.5 mm
same,zone of inhibition at 500 µg/mL,Fusarium oxysporum [4],22 ± 0.11 mm
same,zone of inhibition at 500 µg/mL,Salmonella typhi [5],29 ± 0.2 mm
same,zone of inhibition at 500 µg/mL,Staphylococcus aureus [6],33 ± 0.53 mm
same,IC50,[7],1.22 ± 0.23 µM
same,IC50,[8],3.24 ± 0.41 µM
same,Mean Diameter of Inhibition Zone against MDRB,E. coli ATCC BAA-196 [9],21 ± 0.3 mm
same,MBC,[10],6.66 µg/mL
same,MIC,[10],4.44 µg/mL
same,MBC,E. coli ATCC BAA-196 [11],14.8 µg/mL
same,MIC,E. coli ATCC BAA-196 [11],7.81 µg/mL
same,MBC,S. aureus ATCC 33591 [12],11.1 µg/mL
same,MIC,S. aureus ATCC 33591 [12],5.55 µg/mL
same,MBC,[13],14.8 µg/mL
same,MIC,[13],7.81 µg/mL
same,zone of inhibition at 500 µg/mL,Escherichia coli [14],30 ± 0.29 mm
same,zone of inhibition at 500 µg/mL,Bacillus subtilis [15],32 ± 0.22 mm
same,zone of inhibition at 500 µg/mL,Enterococcus faecalis [16],29 ± 0.17 mm
same,zone of inhibition at 500 µg/mL,Pseudomonas aeruginosa [17],27 ± 0.73 mm
same,Mean Diameter of Inhibition Zone against MDRB,[18],22 ± 0.5 mm
same,IC50,"Vero cells (ATCC CCL-81); Chlorocebus sabaeus, Vero, read-out: IC50 Vero, MTT",> 120 µM
same,IC50,"Vero cells (ATCC CCL-81); read-out: IC50 Vero, MTT",213.5 ± 0.57 µM
same,MFC,Candida albicans [19],41.6 µg/mL
same,MIC,Candida albicans [19],31.2 µg/mL
same,MFC,Fusarium oxysporum [20],87.5 µg/mL
same,MIC,Fusarium oxysporum [20],55.5 µg/mL
same,MIC,Escherichia coli [21],18.5 µg/mL
same,MIC,Salmonella typhi [22],31.2 µg/mL
same,MBC,Salmonella typhi [22]; read-out: MBC,56.2 µg/mL
same,MIC,Staphylococcus aureus [23],31.2 µg/mL
same,Fold more potent than Tetracycline (MIC),Bacillus subtilis [24]; B. subtilis,3 fold
same,MBC,Bacillus subtilis [24]; B. subtilis,18.5 µg/mL
same,MIC,Bacillus subtilis [24]; Bacillus subtilis,9.25 µg/mL
same,MBC,"Bacillus subtilis [24]; Bacillus subtilis, B. subtilis",10.6 µg/mL
same,MIC,Enterococcus faecalis [25],7.81 µg/mL
same,MBC,Pseudomonas aeruginosa [26],88.8 µg/mL
same,MIC,Pseudomonas aeruginosa [26]; Pseudomonas aeruginosa,55.5 µg/mL
same,MBC,Pseudomonas aeruginosa [26]; Pseudomonas aeruginosa,59.4 µg/mL
"COc1ccc(Nc2n[nH]c(N=Cc3c(C)nn(-c4ccccc4)c3Cl)c2C(N)=O)cc1 [7a, 5-((5-Chloro-3-methyl-1-phenyl-1H-pyrazol-4-yl)methyleneamino)-3-(p-methoxyphenylamino)-1H-pyrazole-4-carboxamide]",zone of inhibition at 500 µg/mL,Candida albicans [3]; [27],13 ± 0.35 mm
same,zone of inhibition at 500 µg/mL,Fusarium oxysporum [4]; [28],15 ± 0.3 mm
same,zone of inhibition at 500 µg/mL,Salmonella typhi [5],18 ± 0.16 mm
same,zone of inhibition at 500 µg/mL,Staphylococcus aureus [6]; [29],19 ± 0.31 mm
same,zone of inhibition at 500 µg/mL,Escherichia coli [14]; [30],18 ± 0.2 mm
same,zone of inhibition at 500 µg/mL,Bacillus subtilis [15]; [31],20 ± 0.4 mm
same,zone of inhibition at 500 µg/mL,Enterococcus faecalis [16]; [32],21 ± 0.11 mm
same,zone of inhibition at 500 µg/mL,Pseudomonas aeruginosa [17]; [33],20 ± 0.15 mm
same,melting point,,270 to 272 °C
"COc1ccc(Nc2n[nH]c(N=Cc3c(C)n(C)n(-c4ccccc4)c3=O)c2C(N)=O)cc1 [6a, 5-((1,5-Dimethyl-3-oxo-2-phenyl-2,3-dihydro-1H-pyrazol-4-yl)methyleneamino)-3-(p-methoxyphenylamino)-1H-pyrazole-4-carboxamide]",zone of inhibition at 500 µg/mL,Candida albicans [3]; [27],22 ± 0.35 mm
same,zone of inhibition at 500 µg/mL,Fusarium oxysporum [4]; [28],13 ± 0.3 mm
same,zone of inhibition at 500 µg/mL,Salmonella typhi [5],18 ± 0.16 mm
same,zone of inhibition at 500 µg/mL,Staphylococcus aureus [6]; [29],25 ± 0.31 mm
same,zone of inhibition at 500 µg/mL,Escherichia coli [14]; [30],24 ± 0.2 mm
same,zone of inhibition at 500 µg/mL,Bacillus subtilis [15]; [31],21 ± 0.4 mm
same,zone of inhibition at 500 µg/mL,Enterococcus faecalis [16]; [32],21 ± 0.11 mm
same,zone of inhibition at 500 µg/mL,Pseudomonas aeruginosa [17]; [33],20 ± 0.15 mm
same,melting point,,274 to 276 °C
